In patent US20230330045A1 (priority 2020, published 2023):
Like-named read-outs stand apart in the source and are kept apart here.

Biological target: eel acetylcholinesterase (AChE) (Electrophorus electricus, UniProt O42275)
Experiment: Eel AChE fluorescence assay (AMPLEX Red kit)
Assay type: biochemical
Details: for inhibition of AChE activity (in words): eel AChE, 20 μM
Description: Enzymatic reactions consisted of 50 μM acetylcholine, 200 μM AIVIPLEX™ Red reagent, 1 U/mL horseradish peroxidase, 0.1 U/mL choline oxidase and 0.096 U/mL acetylcholinesterase, with 30 1% DMSO. […] Control reactions lacking acetylcholinesterase but containing 5 μM H2O2 in presence of compounds were analyzed at the same wavelength to exclude compounds that display assay interference. Dose-response curves were performed in duplicate.

[1] = eel AChE activity, at 20 μM, read-out: Percentage inhibition

Chain of eel acetylcholinesterase (AChE) (O42275 24-633): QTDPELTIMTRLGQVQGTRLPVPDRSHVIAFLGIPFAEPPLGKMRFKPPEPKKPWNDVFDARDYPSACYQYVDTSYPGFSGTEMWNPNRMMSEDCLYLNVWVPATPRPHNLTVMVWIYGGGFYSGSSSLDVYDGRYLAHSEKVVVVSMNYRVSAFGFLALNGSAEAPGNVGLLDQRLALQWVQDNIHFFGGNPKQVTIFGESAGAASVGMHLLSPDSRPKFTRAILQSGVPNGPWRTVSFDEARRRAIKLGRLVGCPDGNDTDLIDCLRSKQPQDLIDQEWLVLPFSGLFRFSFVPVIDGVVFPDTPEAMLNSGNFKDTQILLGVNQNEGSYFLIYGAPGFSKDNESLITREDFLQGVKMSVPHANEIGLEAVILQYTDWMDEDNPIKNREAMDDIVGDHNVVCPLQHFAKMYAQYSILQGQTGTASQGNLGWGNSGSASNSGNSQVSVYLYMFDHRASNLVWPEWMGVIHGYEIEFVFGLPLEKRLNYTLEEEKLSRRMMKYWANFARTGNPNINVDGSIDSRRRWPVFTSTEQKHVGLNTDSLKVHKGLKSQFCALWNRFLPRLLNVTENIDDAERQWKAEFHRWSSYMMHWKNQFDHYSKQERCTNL

| Compound | inhibition at 20 µM [1] | inhibition of AChE activity (in words) | assay interference test versus enzyme-free H2O2 reaction (parallel dose-response with 5 μM H2O2) | inhibition at 20 µM (read-out: inhibition of enzyme activity compared to DMSO control (screen)) | Hill slope, eel AChE dose-response (sixteen-point serial dilution, four-parameter fit) |
| --- | --- | --- | --- | --- | --- |
| O=C1c2cc(O)ccc2-c2ccc(O)cc21 [2,7-dihydroxy-9H-fluoren-9-one] | 30% | neither fluorenone, nor the close derivative 2,7-dihydroxy-9H-fluoren-9-one inhibit AChE activity |  |  |  |
| Nc1c2ccccc2nc2ccccc12 [aminacrine] | 99.2% |  |  |  |  |
| Cc1cc(N)c2ccccc2[n+]1CCCCCCCCCC[n+]1c(C)cc(N)c2ccccc21 [dequalinium chloride] |  |  | likely represent true inhibition of the enzyme | ≥ 50% | 0.87 |
| O=C1c2ccccc2-c2ccccc21 [fluorenone] | 3% |  |  |  |  |
| CCN(CC)CCNc1ccc(C)c2sc3ccccc3c(=O)c12 [lucanthone] | 11% | did not show appreciable activity |  |  |  |
